Experimental data published in US20140105959A1, “METHOD AND DEVICE FOR REDUCING DERMAL FILLER ADVERSE EVENTS” (ALLERGAN, INC., priority 2012, published 2014).

Assays:
hairless rat skin [1] = test: vasoconstriction in hairless rat skin after topical phenylephrine patch; format: in vivo
Description: In certain embodiments, mechanisms are provided that are effective to actively enhance transport of vasoactive drugs across the skin (mechanisms will be referred to as “enhancers” in the rest of the invention). For example, in one embodiment of the invention, the method includes the step of treating a skin site selected for dermal filler administration with a mechanism effective to enhance drug delivery across the skin prior to treating the skin site with the device or compound containing the active agent effective to reduce or ameliorate the adverse event. For example, the mechanism, hereinafter sometimes referred to as “mechanical enhancer” may comprise a mechanical device capable of gently stripping of the superficial skin layers from the epidermis. For example, the mechanism may be an adhesive tape or abrasive surface. It has been discovered that use of such mechanisms increase phenylephrine diffusion through the skin and result in significant reduction in skin's vasoconstriction time (e.g. 5 minutes) by phenylephrine using the same patch device. In certain embodiments, it might be useful to apply the mechanism, enhancement device, after filler administration, preferably in devices where the vasoactive drug may interfere with safety and/or potency of fillers. […]

hairless rat skin [2] = test: bruising after dermal filler administration at patch-treated versus untreated rat skin; format: in vivo; conditions: cotton fabric patch, phenylephrine 400 ppm, 15 minutes, then dermal filler, compared with adjacent untreated skin
nasolabial folds = test: visible bruising after Juvederm XC injection into patch-treated nasolabial folds of a patient; format: in vivo, human; conditions: microneedle roller pretreatment, cotton-based patch about 300 ppm phenylephrine for about 7 minutes, then 0.6 cc Juvederm XC per nasolabial fold
Description: Their physician applies, along both nasolabial folds, a tool having a rolling head with numerous microneedles to penetrate the dermis with numerous punctures about one millimeter in depth. They then apply a phenylephrine-containing cotton-based patch, formulated to about 300 ppm phenylephrine, in accordance with the invention, on the skin along the left nasolabial fold, in a way that covers the entire injection site. The patch is left in place for about 7 minutes. The physician removes the patch and then carefully injects 0.6 cc of a HA-based dermal filler, specifically, Juvederm® XC, (available from Allergan, Inc., Irvine, Calif.) into the phenylephrine-treated dermis just beneath the fold line, using a 27 gauge needle. The treatment procedure is repeated for the right nasolabial fold, for example, using another identical patch and another 0.6 cc Juvederm® XC.

Compound: CNC[C@H](O)c1cccc(O)c1 [phenylephrine]
- vasoconstriction in skin regions directly underneath the patch (hairless rat skin [1]; cotton fabric patch, phenylephrine 400 ppm, removed after 15 minutes, hairless rat): significant vasoconstriction
- time to release, diffuse and cause significant vasoconstriction (hairless rat skin [1]; phenylephrine formulated at 100 ppm in a topically placed cotton gauze, hairless rat skin): about 10 minutes
- skin's vasoconstriction time (hairless rat skin [1]; same patch device, after mechanical enhancer (adhesive tape or abrasive surface stripping superficial skin layers)): 5 min
- bruising at the vasoconstricted skin site, particularly along the line of injection (hairless rat skin [2]): lower than at the untreated skin site
- bruising one week after the procedure (nasolabial folds; one week): no bruising, nor red marks
- visible bruising three days after the treatment procedure (nasolabial folds; three days): does not notice any visible bruising
